“Also recorded” adds a separate entry of the source.
How the values were obtained:
[1] = system: dry AMD; test: Health insurance claims database analysis (PearlDiver Mariner): risk of developing dry AMD by haloperidol exposure; assay type: in vivo, human; conditions: for Hazard Ratio of developing dry AMD (adjusted hazard ratio): adjusted Cox proportional hazards regression, propensity-score-matched, patients with schizophrenia or Tourette's disorder aged 50 or older
Excerpt: The retrospective study used claims data from the PearlDiver Mariner database, which contains data on health care claims and medication usage for persons in provider networks over the time period 2010 to the second quarter of 2018.
Patients were included in the analysis if they had continuous enrollment in the plan for at least 1 year and were at least 50 years of age at baseline. Individuals with pre-existing dry AMD (≥1 medical claims prior to diagnosis of schizophrenia or Tourette's disorder) were excluded. Disease claims were identified by International Classification of Diseases (ICD)-9-CM and ICD-10-CM codes.
Exposure to haloperidol—the independent variable—was determined by whether patients filled ≥1 outpatient pharmacy prescriptions for generic or brand versions, either in sole form or as a combination medication, as identified by National Drug Codes.
Time to initial diagnosis of dry AMD was the dependent variable.
Analyses were performed with the use of R software, version 4.2.2 (the R project (www.r-project.org)). To analyze the risk of dry AMD between haloperidol users and haloperidol non-users, an adjusted Cox proportional hazards regression analysis was performed, and the hazard ratio was analyzed by the likelihood ratio test. […] This adjusted model included confounding covariates that influence dry AMD risk: age, sex, smoking, body mass index, and Charlson comorbidity index. Kaplan-Meier survival plots were analyzed by log rank test. Statistical tests were 2-sided. P values <0.05 were considered statistically significant.
To evaluate the robustness of the findings and mitigate any possible residual confounding, we estimated propensity-score models including use of haloperidol and no use of haloperidol. The individual propensities for starting haloperidol treatment were estimated with the use of logistic regression. […] We used the R package MatchIt to perform matching in a 1:1 ratio using greedy nearest neighbor matching. In addition, to control for any residual covariate imbalance, we estimated the relative hazard in the propensity score-matched groups using the multivariable Cox models that included the covariates from the multivariable regression analysis employed for the original unmatched group analyses. Statistical tests were two-sided. P values <0.05 were considered statistically significant.
We performed a retrospective, longitudinal cohort analysis in the PearlDiver Mariner database (comprising 150 million Americans from 2010 to 2018) among patients with schizophrenia or Tourette's disorder (the population that would be exposed to haloperidol or other anti-psychotics) aged 50 or older (the population at risk) to assess the risk of dry AMD.

[2] = system: IL-1β secretion by THP-1 cells; test: Inflammasome activation: IL-1β secretion ELISA in LPS and ATP stimulated THP-1 cells; assay type: cell-based, human; conditions: LPS 125 ng/ml 4 h + ATP 5 mM 30 min, haloperidol pretreatment 1 h, P<0.05 vs vehicle
Method: Human THP-1 cells were stimulated with LPS (125 ng/ml) for 4 h and ATP (5 mM) for 30 min. For all experiments, cells were pretreated with haloperidol (1, 10, or 100 μM) for 1 h and again after the activating stimuli. Secreted human […] in the conditioned cell culture media was detected using an ELISA kit (R&D Systems) according to the manufacturer's instructions. Mean and SEM values are presented.
Haloperidol was tested for inhibition of inflammasome activation. Inflammasome activation was assessed in human THP-1 monocytes by measuring IL-1ß secretion via ELISA.

[3] = system: Alu RNA-induced RPE degeneration; test: Alu RNA-induced RPE degeneration in mice (ZO-1 stained RPE flat mounts); assay type: in vivo, C57BL/6J mice
Method: C57BL/6J mice (The Jackson Laboratory) were anesthetized with ketamine hydrochloride and xylazine. In vitro-transcribed Alu RNA (300 ng in 1 μL) was injected subretinally to induce RPE degeneration (Kaneko, 2011). Various doses of haloperidol (Sigma Aldrich; 1-500 ng in 0.5 μL) or PBS (vehicle) was injected into the vitreous humor 24 h before and immediately after Alu RNA injection. Alternatively, various doses of haloperidol (2-10 μg) were administered via intraperitoneal administration on days 1 through 6 after Alu RNA injection. Animals were euthanized 7 days after Alu RNA injection, and the eyes were enucleated.
RPE health was assessed by immunofluorescence staining of zonula occludens-1 (ZO-1) on RPE flat mounts. Flat mounts were fixed with 2% PFA, stained with rabbit polyclonal antibodies against mouse ZO-1 (Invitrogen), visualized with Alexa Fluor 594 (Invitrogen), and imaged (A1R Nikon). Images were graded as healthy or degenerated in masked fashion as previously described (Kerur, 2018). Proportions of eyes with degeneration were compared using Fisher's exact test.

[4] = patients taking haloperidol (Coryell, 1998); cited from earlier work

O=C(CCCN1CCC(O)(c2ccc(Cl)cc2)CC1)c1ccc(F)cc1 [haloperidol]
rate of developing dry AMD (Kaplan-Meier survival analysis) ([1]; Mariner database, log-rank test P<0.001): significantly slower rate
Hazard Ratio of developing dry AMD (adjusted hazard ratio) ([1]; Mariner database): 0.747
Hazard Ratio of developing dry AMD (adjusted hazard ratio) ([1]; Mariner database, listed as Haloperidol): 0.7468
reduced hazard of developing dry AMD ([1]; haloperidol exposure vs nonexposure, Mariner, adjusted Cox model): 25%
IL-1β secretion (inflammasome activation) [2]: reduced; also recorded: inhibits
eyes protected against RPE degeneration ([3]; 5 ng haloperidol intravitreous, 24 h before and immediately after subretinal Alu RNA, assessed day 7): 70%
protection against RPE degeneration ([3]; daily intraperitoneal injection at 2 μg, 5 μg, or 10 μg, days 1 through 6 after Alu RNA): 70-80%
dose with maximal protective effect against RPE degeneration ([3]; intravitreous dose-ranging 1 ng to 500 ng): 5 ng
Alu RNA-induced RPE degeneration (qualitative) ([3]; subretinal Alu RNA, intravitreous or intraperitoneal haloperidol (FIG. 3)): blocked
serum concentration [4]: exceeding 20 ng/ml

From US20260158016A1, “HALOPERIDOL DERIVATIVES, PHARMACEUTICAL COMPOSITION COMPRISING SAID DERIVATIVES, AND THERAPEUTIC USES THEREOF” (University of Virginia Patent Foundation, priority 2023, published 2026)
